Among the data in US20250320213A1, “Nitrogen-Containing Heterocyclic Compounds” (Pfizer Inc., priority 2024, published 2025) are EC50 and IC50 values, retold here.

One experiment deals with T1, STAT6 (Homo sapiens, UniProt P42226).
T1 construct: stably transfected HaCaT keratinocyte cell line, which expresses NanoLuc luciferase reporter gene under the transcriptional control of the STAT6 responsive promoter; endogenous in cells; host or cells: HaCaT keratinocyte reporter cell line (stably transfected with a NanoLuc reporter)
T1 sequence (P42226 1-847): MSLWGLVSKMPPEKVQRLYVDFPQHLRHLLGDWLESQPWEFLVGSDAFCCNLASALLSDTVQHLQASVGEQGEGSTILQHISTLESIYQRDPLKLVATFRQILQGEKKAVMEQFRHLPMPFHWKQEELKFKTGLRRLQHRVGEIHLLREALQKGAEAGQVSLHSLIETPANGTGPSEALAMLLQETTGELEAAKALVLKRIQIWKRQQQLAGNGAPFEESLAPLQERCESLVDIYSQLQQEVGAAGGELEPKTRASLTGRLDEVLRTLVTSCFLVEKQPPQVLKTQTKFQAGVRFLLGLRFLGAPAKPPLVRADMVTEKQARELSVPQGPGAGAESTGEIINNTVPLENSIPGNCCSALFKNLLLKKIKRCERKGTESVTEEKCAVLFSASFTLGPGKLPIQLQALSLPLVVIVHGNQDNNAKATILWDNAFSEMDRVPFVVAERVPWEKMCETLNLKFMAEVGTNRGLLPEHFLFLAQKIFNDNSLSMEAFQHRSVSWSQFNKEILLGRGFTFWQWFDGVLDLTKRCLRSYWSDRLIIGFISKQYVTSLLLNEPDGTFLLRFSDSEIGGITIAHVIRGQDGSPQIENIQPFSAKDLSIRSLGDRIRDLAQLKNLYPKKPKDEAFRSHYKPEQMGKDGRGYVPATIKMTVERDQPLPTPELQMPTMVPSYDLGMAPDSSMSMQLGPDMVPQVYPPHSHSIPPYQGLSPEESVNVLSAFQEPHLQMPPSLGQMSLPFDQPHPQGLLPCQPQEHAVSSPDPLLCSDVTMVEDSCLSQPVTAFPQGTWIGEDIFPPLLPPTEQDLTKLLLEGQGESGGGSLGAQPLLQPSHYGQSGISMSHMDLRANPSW
Put plainly: STAT6 Reporter Luciferase Assay (IL-13 stimulated HaCaT keratinocyte NanoLuc reporter cells). Conditions: IL-13 stimulated HaCaT STAT6 NanoLuc reporter cells; read-out: Reporter EC50. Format: cell-based. In outline:
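Cells were plated overnight, washed, exposed to compound for two hours, stimulated with IL-13 (0.12 nM final) for four hours at 37 °C, and then lysed with Nano-Glo substrate for 15 min before luminescence reading.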

Experiment [1] deals with CCL17 secretion in peripheral human whole blood. Nature of the experiment: Human Whole Blood (HWB) CCL17 TR-FRET Assay (IL-13 stimulated CCL17 secretion). Type of experiment: cell-based. Particulars: human whole blood, IL-13 stimulated. In outline: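 Measured here: CCL17 in serum by TR-FRET (665/615 nm) after overnight (16 h) room-temperature detection. The blood, heparinized and compound-treated for 2 h, received IL-13 at 10 ng/mL final and was cultured 48 h at 37 °C.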
Background: TR-FRET usually uses a lanthanide donor and a delayed reading to cut background.

What is called EC50 is the concentration that produces a half-maximal response. In general, IC50 refers to the concentration that gives 50% inhibition.

In the case of `CC(C)n1nc(C(=O)NCc2ccc(NC(=O)N3CC[C@H](C#N)C3)cc2)c2c1CCN(c1ccc(C(=O)N(C)C)cn1)C2` [Example 182, (S)-N-(4-(3-cyanopyrrolidine-1-carboxamido)benzyl)-5-(5-(dimethylcarbamoyl)pyridin-2-yl)-1-isopropyl-4,5,6,7-tetrahydro-1H-pyrazolo[4,3-c]pyridine-3-carboxamide], the EC50 on STAT6 is 0.017 µM. Moreover, half-maximal inhibition in experiment [1] (Homo sapiens, 48 h) (IC50) was put at 0.131 µM.
On to `CC(C)n1nc(C(=O)NCc2ccc(NC(=O)N3CC[C@@H](C#N)C3)cc2)c2c1CCN(c1ccc(C(=O)N(C)C)cn1)C2` [Example 183, (R)-N-(4-(3-cyanopyrrolidine-1-carboxamido)benzyl)-5-(5-(dimethylcarbamoyl)pyridin-2-yl)-1-isopropyl-4,5,6,7-tetrahydro-1H-pyrazolo[4,3-c]pyridine-3-carboxamide], for which the half-maximal effective concentration (EC50) on STAT6 amounted to 0.016 µM. This molecule showed an IC50 in experiment [1] (Homo sapiens, 48 h) of 0.067 µM.
In the case of `CC(C)n1nc(C(=O)NCc2ccc(NC(=O)N3CC4CC(C3)O4)cc2)c2c1CCN(c1ccc(C(=O)N(C)C)cn1)C2` [Example 184, N-(4-((5-(5-(dimethylcarbamoyl)pyridin-2-yl)-1-isopropyl-4,5,6,7-tetrahydro-1H-pyrazolo[4,3-c]pyridine-3-carboxamido)methyl)phenyl)-6-oxa-3-azabicyclo[3.1.1]heptane-3-carboxamide], the EC50 on STAT6 amounted to 0.027 µM. For the same molecule, the IC50 in experiment [1] (48 hours) is 0.092 µM.
`CC(C)n1nc(C(=O)NCc2ccc(NC(=O)N3CC(C)(O)C3)cc2)c2c1CCN(c1ccc(C(=O)N(C)C)cn1)C2` [Example 185, 5-(5-(dimethylcarbamoyl)pyridin-2-yl)-N-(4-(3-hydroxy-3-methylazetidine-1-carboxamido)benzyl)-1-isopropyl-4,5,6,7-tetrahydro-1H-pyrazolo[4,3-c]pyridine-3-carboxamide]: the EC50 on STAT6 was 0.024 µM. In addition, in experiment [1] (Homo sapiens, 48 h), the IC50 stood at 0.083 µM.
Taken in the same sequence, the figures for `CC(C)n1nc(C(=O)NCc2ccc(NC(=O)N(C)[C@H]3CCOC3)cc2)c2c1CCN(c1ccc(C(=O)N(C)C)cn1)C2` [Example 187, (S)-5-(5-(dimethylcarbamoyl)pyridin-2-yl)-1-isopropyl-N-(4-(3-methyl-3-(tetrahydrofuran-3-yl)ureido)benzyl)-4,5,6,7-tetrahydro-1H-pyrazolo[4,3-c]pyridine-3-carboxamide] were 0.015 µM and 0.041 µM.
As to `COC1CN(C(=O)Nc2ccc(CNC(=O)c3nn(C(C)C)c4c3CN(c3ccc(C(=O)N(C)C)cn3)CC4)cc2)C1` [Example 188, 5-(5-(dimethylcarbamoyl)pyridin-2-yl)-1-isopropyl-N-(4-(3-methoxyazetidine-1-carboxamido)benzyl)-4,5,6,7-tetrahydro-1H-pyrazolo[4,3-c]pyridine-3-carboxamide], the EC50 on STAT6 stood at 0.011 µM. In experiment [1] (Homo sapiens, 48 h), this molecule displayed an IC50 of 0.069 µM.
Taken in the same sequence, the figures for `CC(C)n1nc(C(=O)NCc2ccc(NC(=O)N(C)CC(F)F)cc2)c2c1CCN(c1ccc(C(=O)N(C)C)cn1)C2` [Example 189, N-(4-(3-(2,2-difluoroethyl)-3-methylureido)benzyl)-5-(5-(dimethylcarbamoyl)pyridin-2-yl)-1-isopropyl-4,5,6,7-tetrahydro-1H-pyrazolo[4,3-c]pyridine-3-carboxamide] were 0.01 µM and 0.095 µM.
In the case of `COc1nc(N2CCc3c(c(C(=O)NCc4ccc(NC(=O)N(C)C)cc4)nn3C(C)C)C2)ccc1[C@@]1(C)CCCNC1=O` [Example 192, (R)-N-(4-(3,3-dimethylureido)benzyl)-1-isopropyl-5-(6-methoxy-5-(3-methyl-2-oxopiperidin-3-yl)pyridin-2-yl)-4,5,6,7-tetrahydro-1H-pyrazolo[4,3-c]pyridine-3-carboxamide], the EC50 at STAT6 turned out to be 1.67 µM. The IC50 in experiment [1] (Homo sapiens, 48 h) was 6.45 µM.
On to `CCOC(=O)Nc1ccc(CNC(=O)c2nn(C(C)C)c3c2CN(c2ccc(C(=O)N(C)C)cn2)CC3)cc1` [Example 236, Ethyl (4-((5-(5-(dimethylcarbamoyl)pyridin-2-yl)-1-isopropyl-4,5,6,7-tetrahydro-1H-pyrazolo[4,3-c]pyridine-3-carboxamido)methyl)phenyl)carbamate], for which the EC50 on STAT6 worked out at 0.017 µM. This molecule gave an IC50 in experiment [1] (48 hours) of 0.254 µM.
On to `CCn1nc(C(=O)NCc2ccc(NC(=O)N(C)C)cc2)c2c1C(C)(C)CN(c1ccc(C(=O)N(C)C)cn1)C2` [Example 238, 5-(5-(dimethylcarbamoyl)pyridin-2-yl)-N-(4-(3,3-dimethylureido)benzyl)-1-ethyl-7,7-dimethyl-4,5,6,7-tetrahydro-1H-pyrazolo[4,3-c]pyridine-3-carboxamide], for which the concentration giving a half-maximal response (EC50) at STAT6 was 0.002 µM. In addition, in experiment [1] (Homo sapiens, 48 h), inhibition was half-maximal at 0.009 µM (IC50).
With `CC(C)n1nc(C(=O)NCc2ccc(NC(=O)N(C)C)cc2)c2c1C(C)(C)CN(c1ccc(C(=O)N(C)C)cn1)C2` [Example 247, 5-(5-(dimethylcarbamoyl)pyridin-2-yl)-N-(4-(3,3-dimethylureido)benzyl)-1-isopropyl-7,7-dimethyl-4,5,6,7-tetrahydro-1H-pyrazolo[4,3-c]pyridine-3-carboxamide], the EC50 on STAT6 worked out at 0.001 µM. Moreover, in experiment [1] (Homo sapiens, 48 h), the IC50 was 0.009 µM.
For `CN(C)C(=O)Nc1ccc(CNC(=O)c2nn(CC3CC(F)(F)C3)c3c2CN(c2ccc(C(=O)N(C)C)cn2)CC3)cc1` [Example 248, 1-((3,3-difluorocyclobutyl)methyl)-5-(5-(dimethylcarbamoyl)pyridin-2-yl)-N-(4-(3,3-dimethylureido)benzyl)-4,5,6,7-tetrahydro-1H-pyrazolo[4,3-c]pyridine-3-carboxamide], the EC50 at STAT6 turned out to be 0.035 µM. The IC50 in experiment [1] (Homo sapiens, 48 h) came out at 0.131 µM.
Turning to `CN(C)C(=O)Nc1ccc(CN2CCCn3nc4c(c3C2=O)CN(c2ccc(C(=O)N(C)C)cn2)CC4)cc1` [Example 252, 6-(10-(4-(3,3-Dimethylureido)benzyl)-11-oxo-1,3,4,7,8,9,10,11-octahydro-2H-pyrido[4′,3′:3,4]pyrazolo[1,5-a][1,4]diazepin-2-yl)-N,N-dimethylnicotinamide], the EC50 on STAT6 was 0.385 µM. The molecule also had an IC50 in experiment [1] (Homo sapiens, 48 h) of 1.13 µM.
Taken in the same sequence, the figures for `CN(C)C(=O)Nc1ccc(CNC(=O)c2nn(CC(C)(C)C)c3c2CN(c2ccc(C(=O)N(C)C)cn2)CC3)cc1` [Example 253, 5-(5-(dimethylcarbamoyl)pyridin-2-yl)-N-(4-(3,3-dimethylureido)benzyl)-1-neopentyl-4,5,6,7-tetrahydro-1H-pyrazolo[4,3-c]pyridine-3-carboxamide] were 0.007 µM and 0.126 µM.
Taken in the same sequence, the figures for `CN(C)C(=O)Nc1ccc(CNC(=O)c2nn(C3CCCOC3)c3c2CN(c2ccc(C(=O)N(C)C)cn2)CC3)cc1` (stereo not drawn) [Example 254, 5-(5-(dimethylcarbamoyl)pyridin-2-yl)-N-(4-(3,3-dimethylureido)benzyl)-1-(tetrahydro-2H-pyran-3-yl)-4,5,6,7-tetrahydro-1H-pyrazolo[4,3-c]pyridine-3-carboxamide] were 0.022 µM and 0.18 µM.
On to `CN(C)C(=O)Nc1ccc(CN2CCn3nc4c(c3C2=O)CN(c2ccc(C(=O)N(C)C)cn2)CC4)cc1` [Example 256, 6-(9-(4-(3,3-dimethylureido)benzyl)-10-oxo-3,4,7,8,9,10-hexahydropyrido[4′,3′:3,4]pyrazolo[1,5-a]pyrazin-2(1H)-yl)-N,N-dimethylnicotinamide], for which, on STAT6, the EC50 was determined as 0.028 µM. In experiment [1] (Homo sapiens, 48 h), this molecule gave an IC50 of 0.19 µM.
Taken in the same sequence, the figures for `CN(C)C(=O)Nc1ccc(CNC(=O)c2nn(CC3CCC3)c3c2CN(c2ccc(C(=O)N(C)C)cn2)CC3)cc1` [Example 257, 1-(cyclobutylmethyl)-5-(5-(dimethylcarbamoyl)pyridin-2-yl)-N-(4-(3,3-dimethylureido)benzyl)-4,5,6,7-tetrahydro-1H-pyrazolo[4,3-c]pyridine-3-carboxamide] were 0.015 µM and 0.272 µM.
Taken in the same sequence, the figures for `C[C@H]1Cc2c(c(C(=O)NCc3ccc(NC(=O)N(C)C)cc3)nn2C)CN1c1ccc(-c2nccn2C)cn1` [Example 259, (S)-N-(4-(3,3-dimethylureido)benzyl)-1,6-dimethyl-5-(5-(1-methyl-1H-imidazol-2-yl)pyridin-2-yl)-4,5,6,7-tetrahydro-1H-pyrazolo[4,3-c]pyridine-3-carboxamide] were 0.002 µM and 0.03 µM.
